Results taken from article PMC7943464, “Dim Red Light During Scotophase Enhances Mating of a Moth Through Increased Male Antennal Sensitivity Against the Female Sex Pheromone” (Frontiers in Genetics, 2021).

Molecular target: T1, CpunOBP2 (Conogethes punctiferalis, UniProt A0A0C4K8H3)
T1 construct: gene OBP2; pET-32a(+) in E. coli BL21(DE3); Ni-IDA purified; tags removed by enterokinase
T1 sequence (A0A0C4K8H3 23-151): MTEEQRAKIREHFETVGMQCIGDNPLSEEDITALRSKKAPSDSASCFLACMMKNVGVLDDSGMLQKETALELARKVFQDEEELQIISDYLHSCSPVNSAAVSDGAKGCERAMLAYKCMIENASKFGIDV
Experiment: competitive 1-NPN fluorescence displacement
Type: binding
Description: competitive 1-NPN fluorescence displacement on CpunOBP2

Row | SMILES | IC50 [µM] | Ki [µM]
1 | CCCCC/C=C\CCCCCCCCC=O [Z10-16∶Ald, (Z)-10-hexadecenal] | 7.73 ± 2.82 | 6.86 ± 2.5
2 | CC/C=C\C/C=C\C/C=C\CCCCCCCCCCCCC [Z3, Z6, Z9-23∶HC, (Z3, Z6, Z9)-tricosatriene] | 4.14 ± 2.63 | 3.68 ± 2.33
3 | CCCCC/C=C/CCCCCCCCC=O [E10-16∶Ald, (E)-10-hexadecenal] | 9.55 ± 4.58 | 8.48 ± 4.06
